2 compounds from patent publication US20230399339A1, “HETEROCYCLIC AMIDE DERIVATIVE, PREPARATION METHOD THEREFOR, AND APPLICATION THEREOF” (SHENZHEN ZHONGGE BIOLOGICAL TECHNOLOGY CO., LTD., priority 2021, published 2023) can be followed below.

Each structure is given as a SMILES string.

The target in this assay is T1, EP4 receptor (Homo sapiens, UniProt P35408).
T1 construct: expressed in transfected cells; host or cells: Flpin-CHO-EP4 cells (Flp-In CHO host, Chinese hamster ovary)
Briefly: Antagonist activity against EP4 receptor by cAMP assay. Format: cell-based. To be noted: Flpin-CHO-EP4 cells, PGE2-stimulated cAMP; initial concentration 50 nM, dilution times 4. The protocol:
(a) Antagonist Activity Against EP4 Receptor by cAMP Assay:
Experiment Methods: Inoculating Flpin-CHO-EP4 cells (8000 cells/well) into a 384-well plate (6007680-50, PE) with an assay buffer (1×HBSS+20 mM HEPES+0.1% BSA+500 μM IBMX). Preparing 8× compound working solution with the assay buffer. Adding 2.5 μL of the 8× compound working solution to each well in the cell plate according to the plate map and incubating at 37° C. for 10 min. Preparing 8×PGE2 (400 nM) with the assay buffer. Adding 2.5 μL of the 8×PGE2 per well in the cell plate and incubating at 37° C. for 30 min. Diluting the Eu-cAMP tracer (1/50) with a lysis buffer and adding 10 μL per well in the test plate. Diluting Ulight-anti-cAMP (1/150) with a lysis buffer and adding 10 μL per well in the test plate. Incubating at room temperature for 1 h. Reading wavelength signal values at 665 nm and 615 nm on the Envision 2105 plate reader.
(In general: cAMP levels reflect the balance of adenylyl cyclase and phosphodiesterase activity.)

T1 sequence (P35408 whole entry): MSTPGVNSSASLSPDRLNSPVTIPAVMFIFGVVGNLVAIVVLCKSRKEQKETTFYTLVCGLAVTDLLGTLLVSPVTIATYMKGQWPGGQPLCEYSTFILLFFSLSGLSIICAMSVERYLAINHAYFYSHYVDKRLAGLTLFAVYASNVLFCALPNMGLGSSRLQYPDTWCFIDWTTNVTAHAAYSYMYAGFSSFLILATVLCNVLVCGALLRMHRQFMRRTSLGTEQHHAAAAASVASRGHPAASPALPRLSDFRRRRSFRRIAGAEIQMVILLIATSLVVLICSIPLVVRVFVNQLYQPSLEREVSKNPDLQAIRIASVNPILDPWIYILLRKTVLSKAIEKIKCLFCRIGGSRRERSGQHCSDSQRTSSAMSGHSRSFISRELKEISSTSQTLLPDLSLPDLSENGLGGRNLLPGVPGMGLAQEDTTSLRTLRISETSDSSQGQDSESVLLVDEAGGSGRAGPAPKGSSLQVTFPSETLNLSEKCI

Regarding `Cc1sc2ccn(Cc3ccc(S(F)(F)(F)(F)F)cc3)c2c1C(=O)NC1(c2ccc(C(=O)O)cc2)CC1` [Example 1, 4-(1-{[2-methyl-4-(4-(pentafluorothio)benzyl)-4H-thieno[3,2-b]pyrrole-3-carbonyl]amino}-cyclopropyl)carboxylic acid], the half-maximal inhibitory concentration (IC50) (in general, the point on the concentration scale where inhibition reaches its midpoint) is 0.122 nM.

As for `Cc1sc2ccn(Cc3ccc(C(F)(F)F)cc3)c2c1C(=O)NC1(c2ccc(C(=O)O)cc2)CC1` [Control compound], the half-inhibitory concentration (IC50) turned out to be 0.351 nM.
